# From patent publication US20230270713A1, “Administration of Resiniferatoxin For Treatment of Bladder Pain or Bladder Cancer” (Sorrento Therapeutics, Inc., priority 2020, published 2023)
# Key:
# [1] = tested on: CGRP and SP afferent nerve fibers (TRPV1 axons) innervating the cat bladder; assay: Density of CGRP and SP afferent nerve fibers in cat bladder (IHC, confocal); type: in vivo
# Procedure: To examine the effect of intravesical instillation of RTX on the bladder, 6 healthy cats, between the 2-5 years of age, were treated with either 5 (low dose), 25 (mid dose) or 50 mcg (high dose) of RTX (volume was 25 ml; concentrations were 0.2, 1, and 2 mcg/ml). These doses are considered equivalent to administration of 20, 100, or 200 mcg in a human with a volume of 100 ml. A seventh cat received saline only and served as the control. The bladders of the anesthetized cats were emptied and then flushed with sterile saline via a foley urinary catheter. Once the saline was removed, the treatment with RTX (test cats) or saline alone (control cat) was administered over 60 seconds and left in the bladder for 20 minutes.
# At day 14 the cats were anesthetized and perfused with saline followed by 10% formalin. After confirmation of successful euthanasia, lumbar and sacral segments of the spinal cord with corresponding dorsal spinal ganglia, the urinary bladder and urethra were harvested and tissues were prepared for immunohistochemistry.
# Previous studies have shown that TRPV1-immunoreactive axons co-express Calcitonin gene-related peptide (CGRP) and substance P (SP) (See, e.g., Sharrad et al. (2015) Neurosci. Lett., 599: 164-171; Bae et al. (2004) J. Comp. Neurol. 478: 62-71). Since feline bladder connective tissue, smooth muscle, and cell bodies of S2 DRG express CGRP+ and SP+ axons, expression of CGRP and SP were used in these studies to identify the majority of TRPV1 axons innervating the cat bladder and TRPV1+ cell bodies in cat S2 dorsal root ganglia (DRG).
# [2] = tested on: cats with FIC (Feline Idiopathic Cystitis); assay: Cystitis Events Survey in cats with Feline Idiopathic Cystitis; type: in vivo, cat; settings: for Cystitis Improvement ≥2 Point, cats n/N / Cystitis Improvement ≥3 Point, cats n/N / Cystitis Improvement ≥2 Point, percent of cats / Cystitis Improvement ≥3 Point, percent of cats: Day 28
# Description: The Cystitis Events Survey consists a 5-point scale, ranging from 0=normal cat to 5=very severe sign of cystitis. Clinical signs of cystitis included in this survey are: increased frequency of urination; straining while urinating; crying out/vocalizing while urinating; presence of blood in urine; urination outside of litter box; and increased grooming around perineum.
# The use of the Cystitis Events Survey was exploratory, and no strict definition of success was applied to the results. However, and based on published literature, the results were described as follows: (1) percentage of cats per cohort with an average improvement of 2 or more points and no increase in any individual score on Day 28; and (2) percentage of cats per cohort with an average improvement of 3 or more points and no increase in any individual score on Day 28.
# […] Intravesical instillation: After the cat has reached an adequate anesthesia level, the perineal area was prepared using a standard aseptic technique. After preparation, a urinary catheter (type and size decided on a case by case basis) was placed using aseptic technique. Then, the urinary bladder was emptied and flushed with 20 ml of sterile saline. Once the flush solution was removed, the RTX solution was infused through the urinary catheter over 2 minutes. Once the total volume of the solution is infused, the solution was left in the urinary bladder for 20 min. At the end of this period the IVP (investigational veterinary product) solution was removed. Finally, the urinary catheter was removed, and the perineal area was flushed with 20 ml of saline. The total amount of solution removed from the bladder was recorded.
# 24 cats were treated and the cohorts and their respective IVP treatments are described in the table 9 below. The cohorts were populated and dosed sequentially. Cats enrolled in Cohorts 2, 3 and 4 were dosed at least 3 days after the previous cohort closed.
# [3] = Safety monitoring in FIC cats; type: in vivo, cat
# Procedure: As a way of monitoring the safety of the experiment for the enrolled cats, a physical examination was performed on the cats on Days 14 and 28. Measurements for body weight, body temperature, heart rate and respiratory rate were recorded. Body weight was collected for all cohorts, while the remaining variables were collected for Cohort 1, which received the highest total dose of RTX (25 μg/25 mL). […] Results were also collected for complete blood count (CBC), serum chemistry, urinalysis and culture.
# [4] = 6.25 μg (0.25 μg/mL), Day 0, n 6
# [5] = 6.25 μg (0.25 μg/mL), Day 28, n 6
# [6] = 12.5 μg (0.5 μg/mL), Day 0, n 6
# [7] = 12.5 μg (0.5 μg/mL), Day 28, n 5
# [8] = 12.5 μg (1.25 μg/mL), Day 0, n 6
# [9] = 12.5 μg (1.25 μg/mL), Day 28, n 6
smiles,measurement,setting,value
"C=C(C)[C@]12C[C@@H](C)[C@@]34O[C@](Cc5ccccc5)(O[C@@H]1[C@@H]3C=C(COC(=O)Cc1ccc(O)c(OC)c1)C[C@]1(O)C(=O)C(C)=C[C@@H]41)O2 [RTX, resiniferatoxin]",density of CGRP and SP axons innervating cat bladder body,"[1]; 5, 25 and 50 mcg single administration, 14 days post-treatment, vs saline",reduced
same,density of CGRP or SP fibers in cat bladder,[1]; 5 mcg RTX in 25 ml saline,modest reduction
same,density of CGRP and SP-immunoreactive axons innervating cat bladder body,"[1]; 25 and 50 mcg, day 14, vs control saline",decreased
same,ablation of afferent nerves,[1]; 25 mcg and 50 mcg in 25 ml saline,effective at ablating afferent nerves
same,"density of CGRP and SP fibers in body, trigon and fundus","[1]; 25 or 50 mcg in 25 ml saline, vs control",more significant reduction
same,"cystitis events survey, Maximum",[2]; [4],18.0
same,"cystitis events survey, Mean",[2]; [4],13.00
same,"cystitis events survey, Median",[2]; [4],12.00
same,"cystitis events survey, Minimum",[2]; [4],10.0
same,"cystitis events survey, Maximum",[2]; [5],14.0
same,"cystitis events survey, Mean",[2]; [5],8.33
same,"cystitis events survey, Median",[2]; [5],8.00
same,"cystitis events survey, Minimum",[2]; [5],3.0
same,"Cystitis Improvement ≥2 Point, cats n/N",[2]; 6.25 μg/25 mL (Cohort 2),4/6
same,"Cystitis Improvement ≥3 Point, cats n/N",[2]; 6.25 μg/25 mL (Cohort 2),2/6
same,"cystitis events survey, Maximum",[2]; [6],13.0
same,"cystitis events survey, Mean",[2]; [6],11.33
same,"cystitis events survey, Median",[2]; [6],11.00
same,"cystitis events survey, Minimum",[2]; [6],10.0
same,"cystitis events survey, Maximum",[2]; [7],7.0
same,"cystitis events survey, Mean",[2]; [7],5.20
same,"cystitis events survey, Median",[2]; [7],5.00
same,"cystitis events survey, Minimum",[2]; [7],3.0
same,"cystitis events survey, Maximum",[2]; [8],16.0
same,"cystitis events survey, Mean",[2]; [8],12.5
same,"cystitis events survey, Median",[2]; [8],12.50
same,"cystitis events survey, Minimum",[2]; [8],9.0
same,"cystitis events survey, Maximum",[2]; [9],8.0
same,"cystitis events survey, Mean",[2]; [9],5.33
same,"cystitis events survey, Median",[2]; [9],6.00
same,"cystitis events survey, Minimum",[2]; [9],3.0
same,"Cystitis Improvement ≥2 Point, cats n/N",[2]; 12.5 μg/10 mL (Cohort 4),6/6
same,"Cystitis Improvement ≥2 Point, percent of cats",[2]; 12.5 μg/10 mL (Cohort 4),(100%)
same,"Cystitis Improvement ≥3 Point, cats n/N",[2]; 12.5 μg/10 mL (Cohort 4),6/6
same,"Cystitis Improvement ≥3 Point, percent of cats",[2]; 12.5 μg/10 mL (Cohort 4),(100%)
same,"Cystitis Improvement ≥2 Point, cats n/N",[2]; 12.5 μg/25 mL (Cohort 3),5/5
same,"Cystitis Improvement ≥2 Point, percent of cats",[2]; 12.5 μg/25 mL (Cohort 3),(100%)
same,"Cystitis Improvement ≥3 Point, cats n/N",[2]; 12.5 μg/25 mL (Cohort 3),5/5
same,"Cystitis Improvement ≥3 Point, percent of cats",[2]; 12.5 μg/25 mL (Cohort 3),(100%)
same,"cystitis events survey, Maximum","[2]; 25 μg (1 μg/mL), Day 0, n 6",22.0
same,"cystitis events survey, Mean","[2]; 25 μg (1 μg/mL), Day 0, n 6",16.67
same,"cystitis events survey, Median","[2]; 25 μg (1 μg/mL), Day 0, n 6",16.50
same,"cystitis events survey, Minimum","[2]; 25 μg (1 μg/mL), Day 0, n 6",11.0
same,"cystitis events survey, Maximum","[2]; 25 μg (1 μg/mL), Day 28, n 5",7.0
same,"cystitis events survey, Mean","[2]; 25 μg (1 μg/mL), Day 28, n 5",4.40
same,"cystitis events survey, Median","[2]; 25 μg (1 μg/mL), Day 28, n 5",4.00
same,"cystitis events survey, Minimum","[2]; 25 μg (1 μg/mL), Day 28, n 5",2.0
same,"Cystitis Improvement ≥2 Point, cats n/N",[2]; 25 μg/25 mL (Cohort 1),4/5
same,"Cystitis Improvement ≥2 Point, percent of cats",[2]; 25 μg/25 mL (Cohort 1),(80%)
same,"Cystitis Improvement ≥3 Point, cats n/N",[2]; 25 μg/25 mL (Cohort 1),4/5
same,"Cystitis Improvement ≥3 Point, percent of cats",[2]; 25 μg/25 mL (Cohort 1),(80%)
same,"complete blood count (CBC), serum chemistry, urinalysis and culture",[3],No significant changes were observed
same,Adverse events in other cohorts,[3]; Cohorts 2-4,considered unrelated to the treatment or not serious
same,"body weight, body temperature, heart rate and respiratory rate","[3]; Days 14 and 28, body weight all cohorts, other variables Cohort 1 (25 μg/25 mL)",No clinically significant changes were observed
same,Tolerability,"[3]; all doses, at administration and through 28-day follow-up",overall well tolerated
same,serious adverse events considered related to the treatment,[3]; death of a Cohort 1 cat (25 μg/25 mL),One serious adverse event
